pEC50, pIC50, pKi: −log10 of the molar value. Like-named read-outs stand apart in the source and are kept apart here.
Experiments:
D. discoideum = D. discoideum growth inhibition; format: cell-based, Dictyostelium discoideum
Human FPPS = target: T1, Human FPPS (Homo sapiens, UniProt P14324); experiment: Human FPPS inhibition; format: biochemical
T1 sequence (P14324 1-419): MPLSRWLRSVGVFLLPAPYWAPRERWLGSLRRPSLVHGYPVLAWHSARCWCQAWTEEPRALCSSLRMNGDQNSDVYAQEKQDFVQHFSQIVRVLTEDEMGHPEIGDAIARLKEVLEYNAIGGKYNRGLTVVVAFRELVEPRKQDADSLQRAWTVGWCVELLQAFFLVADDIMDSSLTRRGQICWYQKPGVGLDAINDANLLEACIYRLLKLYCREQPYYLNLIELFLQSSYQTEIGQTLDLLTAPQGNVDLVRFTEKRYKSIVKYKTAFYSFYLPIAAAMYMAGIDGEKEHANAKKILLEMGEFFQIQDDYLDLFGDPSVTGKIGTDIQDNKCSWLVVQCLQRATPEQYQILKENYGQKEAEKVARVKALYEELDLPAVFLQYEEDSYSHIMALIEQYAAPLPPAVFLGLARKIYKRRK

Gammadelta T cell = Gammadelta T cell stimulation; format: cell-based, human
T. brucei FPPS = T. brucei FPPS (Trypanosoma brucei, UniProt Q57WF1); experiment: biochemical
MCF-7 cell = experiment: Tumor cell growth inhibition, MCF-7; format: cell-based, human; conditions: breast cancer cell line
Description: (§1) Bisphosphonate compounds were tested regarding tumor cell growth inhibition. […] See Table 1 and FIG. 3 showing dose-response data.

NCI-H460 cell = experiment: Tumor cell growth inhibition, NCI-H460; format: cell-based, human; conditions: lung cancer cell line
Description: as §1

SF-268 cell = experiment: Tumor cell growth inhibition, SF-268; format: cell-based, human; conditions: central nervous system (glioblastoma) cell line
Description: as §1

[1] = target: undecaprenyl diphosphate synthase (UPPS) (Escherichia coli, UniProt P60472); experiment: UPPS inhibition; format: biochemical
Description: Certain compounds were also tested regarding the ability to inhibit undecaprenyl diphosphate synthase (UPPS). See results in Table 2. […] For example, an antibacterial treatment can include contacting a bacterial cell with a compound of the invention. In an embodiment, a bacterial cell can be, e.g., a Gram negative organism such as E. coli or a Gram positive organism such as Staphylococcus aureus.

E. coli = experiment: Anti-bacterial activity in E. coli; format: cell-based, Escherichia coli
Excerpt: We considered aspects of mevalonate and non-mevalonate pathway gene regulation.

[2] = Dictyostelium discoideum; read-out: D. discoideum IC50

undecaprenyl diphosphate synthase (UPPS), sequence (P60472 whole entry): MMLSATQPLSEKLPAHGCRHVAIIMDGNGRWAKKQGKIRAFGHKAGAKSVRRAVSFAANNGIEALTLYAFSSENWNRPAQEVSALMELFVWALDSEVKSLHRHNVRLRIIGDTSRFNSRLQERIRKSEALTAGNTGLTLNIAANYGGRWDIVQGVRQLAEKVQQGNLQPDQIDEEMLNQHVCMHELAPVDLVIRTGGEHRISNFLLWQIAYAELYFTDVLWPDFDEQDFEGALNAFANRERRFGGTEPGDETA
T. brucei FPPS, sequence (Q57WF1 entry or part of it): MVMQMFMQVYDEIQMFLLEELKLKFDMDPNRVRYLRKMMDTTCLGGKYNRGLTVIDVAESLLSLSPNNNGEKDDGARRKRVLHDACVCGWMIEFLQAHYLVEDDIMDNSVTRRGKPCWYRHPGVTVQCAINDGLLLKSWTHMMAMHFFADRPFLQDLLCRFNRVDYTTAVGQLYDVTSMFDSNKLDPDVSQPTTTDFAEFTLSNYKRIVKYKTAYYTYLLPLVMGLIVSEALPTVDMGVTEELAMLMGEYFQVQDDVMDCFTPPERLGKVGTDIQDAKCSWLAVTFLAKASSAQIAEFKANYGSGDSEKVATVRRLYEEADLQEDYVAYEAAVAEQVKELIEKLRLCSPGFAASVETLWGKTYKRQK

## 1-hydroxy-3-(trimethylphosphoniumyl)propylidene-1,1-bisphosphonic acid [Compound 9]
D. discoideum; read-out: D. discoideum IC50
  pIC50: 3.68
Human FPPS
  pKi: 7.65
Gammadelta T cell
  pEC50: 2.74

## NCCC(O)(P(=O)(O)O)P(=O)(O)O [1 (Pamidronate), Pamidronate, reference compound]
D. discoideum; [2]
  pIC50: 3.78

## NCCCC(O)(P(=O)(O)O)P(=O)(O)O [2 (alendronate), alendronate, reference compound]
D. discoideum; [2]
  pIC50: 4.49
Gammadelta T cell; Homo sapiens, T-cell
  pEC50: 4.28

## O=P(O)(O)C(O)(Cc1cccnc1)P(=O)(O)O [3 (risedronate), risedronate, reference compound]
Gammadelta T cell; Homo sapiens, T-cell
  pEC50: 5.21

## O=P(O)(O)C(O)(Cn1ccnc1)P(=O)(O)O [4 (zoledronate), zoledronate, reference compound]
T. brucei FPPS
  pIC50: 6.49
D. discoideum; Dictyostelium discoideum, read-out: D. discoideum IC50
  pIC50: 5.72

## O=P(O)(O)C(O)(C[S+]1CCCCC1)P(=O)(O)O [Compound 6, 1-hydroxy-2-(pentamethylenesulfoniumyl)ethylidene-1,1-bisphosphonic acid]
T. brucei FPPS; read-out: T. brucei FPPS IC50
  pIC50: 6.40
D. discoideum; read-out: D. discoideum IC50
  pIC50: 5.32
Gammadelta T cell
  pEC50: 4.66

## C[P+](C)(C)CC(O)(P(=O)(O)O)P(=O)(O)O [Compound 7, 1-hydroxy-2-(trimethylphosphoniumyl)ethylidene-1,1-bisphosphonic acid]
T. brucei FPPS; read-out: T. brucei FPPS IC50
  pIC50: 5.70
D. discoideum; read-out: D. discoideum IC50
  pIC50: 4.86
Human FPPS
  pKi: 8.09
Gammadelta T cell
  pEC50: 3.90

## CC[S+](CCCOc1ccccc1)CCC(O)(P(=O)(O)O)P(=O)(O)O (centres unmarked) [Compound 16, 1-hydroxy-3-(S-ethyl-3-phenoxypropylsulfoniumyl)propylidene-1,1-bisphosphonic acid]
D. discoideum; read-out: D. discoideum IC50
  pIC50: 5.37
Human FPPS
  pKi: 8.28
Gammadelta T cell
  pEC50: 3.70

## C[S+](CCCc1ccccc1)CC(O)(P(=O)(O)O)P(=O)(O)O (centres unmarked) [Compound 23, 1-hydroxy-2-(S-methyl-3-phenylpropylsulfoniumyl)ethylidene-1,1-bisphosphonic acid]
T. brucei FPPS; read-out: T. brucei FPPS IC50
  pIC50: 6.74
D. discoideum; read-out: D. discoideum IC50
  pIC50: 5.73
Human FPPS
  pKi: 8.25

## O=P(O)(O)C(Cc1ccc(Br)c(Br)c1)P(=O)(O)O [Compound 491, 2-(3,4-Dibromophenyl)ethylidene-1,1-bisphosphonic acid]
MCF-7 cell
  pIC50: 3.27
NCI-H460 cell
  pIC50: 3.35
SF-268 cell
  pIC50: 3.46

## CC(C)(C)C(=O)OCOP(=O)(OCOC(=O)C(C)(C)C)C(Cc1ccc(Br)c(Br)c1)P(=O)(OCOC(=O)C(C)(C)C)OCOC(=O)C(C)(C)C [Compound 493, Tetrakis-pivaloyloxymethyl 2-(3,4-dibromophenyl)ethylidene-1,1-bisphosphonate]
MCF-7 cell
  pIC50: 6.66
NCI-H460 cell
  pIC50: 6.21
SF-268 cell
  pIC50: 6.19

## CC(C)(C)C(=O)OCOP(=O)(OCOC(=O)C(C)(C)C)C(Cc1ccc(Cl)c(Cl)c1)P(=O)(OCOC(=O)C(C)(C)C)OCOC(=O)C(C)(C)C [Compound 494, Tetrakis-pivaloyloxymethyl 2-(3,4-dichlorophenyl)ethylidene-1,1-bisphosphonate]
MCF-7 cell
  pIC50: 6.47
NCI-H460 cell
  pIC50: 5.57
SF-268 cell
  pIC50: 5.84

## CC(C)OC(=O)OCOP(=O)(OCOC(=O)OC(C)C)C(Cc1ccc(Cl)c(Cl)c1)P(=O)(OCOC(=O)OC(C)C)OCOC(=O)OC(C)C [Compound 495, Tetrakis-isopropoxycarboxymethyl 2-(3,4-dichlorophenyl)ethylidene-1,1-bisphosphonate]
MCF-7 cell
  pIC50: 5.71
NCI-H460 cell
  pIC50: 5.31
SF-268 cell
  pIC50: 5.32

## O=P(O)(O)C(O)(Cc1cccc(-c2cccc(-c3ccccc3)c2)c1)P(=O)(O)O [Compound 608, 1-Hydroxy-2-[3-(3-phenylphenyl)phenyl]ethylidene-1,1-bisphsophonic acid]
MCF-7 cell; Homo sapiens, MCF7
  pIC50: 3.82
NCI-H460 cell; Homo sapiens, NCI-H460
  pIC50: 3.85
SF-268 cell; Homo sapiens, SF-268
  pIC50: 3.89
[1]
  pIC50: 6.21

## O=P(O)(O)C(O)(CCc1cccc(-c2ccc(-c3ccccc3)cc2)c1)P(=O)(O)O [Compound 618, 1-Hydroxy-3-[3-(4-phenylphenyl)phenyl]propylidene-1,1-bisphosphonic acid]
MCF-7 cell
  pIC50: 3.71
NCI-H460 cell
  pIC50: 3.88
SF-268 cell
  pIC50: 3.76
[1]
  pIC50: 4.90

## O=P(O)(O)C(O)(CCc1cccc(-c2ccccc2-c2ccccc2)c1)P(=O)(O)O [Compound 621, 1-Hydroxy-3-[3-(2-phenylphenyl)phenyl]propylidene-1,1-bisphosphonic acid]
MCF-7 cell; Homo sapiens, MCF7
  pIC50: 3.84
NCI-H460 cell; Homo sapiens, NCI-H460
  pIC50: 3.87
SF-268 cell; Homo sapiens, SF-268
  pIC50: 3.84
[1]
  pIC50: 5.12

## O=P(O)(O)C(O)(CCc1cccc(-c2cccc(-c3ccccc3)c2)c1)P(=O)(O)O [Compound 622, 1-Hydroxy-3-[3-(3-phenylphenyl)phenyl]propylidene-1,1-bisphsophonic acid]
MCF-7 cell; Homo sapiens, MCF7
  pIC50: 4.36
NCI-H460 cell; Homo sapiens, NCI-H460
  pIC50: 4.33
SF-268 cell; Homo sapiens, SF-268
  pIC50: 4.35
[1]
  pIC50: 5.62

## O=P(O)(O)C(O)(Cc1cccc(-c2ccccc2-c2ccccc2)c1)P(=O)(O)O [Compound 623, 1-Hydroxy-2-[3-(2-phenylphenyl)phenyl]ethylidene-1,1-bisphsophonic acid]
MCF-7 cell
  pIC50: 4.03
NCI-H460 cell
  pIC50: 4.07
SF-268 cell
  pIC50: 4.24

## O=P(O)(O)C(O)(Cc1ccc(-c2ccccc2-c2ccccc2)cc1)P(=O)(O)O [Compound 624, 1-Hydroxy-2-[4-(2-phenylphenyl)phenyl]ethylidene-1,1-bisphosphonic acid]
MCF-7 cell
  pIC50: 2.97
NCI-H460 cell
  pIC50: 3.48
SF-268 cell
  pIC50: 3.32

## O=P(O)(O)C(O)(Cc1ccc(-c2cccc(-c3ccccc3)c2)cc1)P(=O)(O)O [Compound 625, 1-Hydroxy-2-[4-(3-phenylphenyl)phenyl]ethylidene-1,1-bisphosphonic acid]
MCF-7 cell; Homo sapiens, MCF7
  pIC50: 3.38
NCI-H460 cell; Homo sapiens, NCI-H460
  pIC50: 3.38
SF-268 cell; Homo sapiens, SF-268
  pIC50: 3.21
[1]
  pIC50: 6.05

## O=P(O)(O)C(O)(c1cccc(-c2cccc(-c3ccccc3)c2)c1)P(=O)(O)O [Compound 640, 1-Hydroxy-[3-(3-phenylphenyl)phenyl]methylene-1,1-bisphsophonic acid]
MCF-7 cell; Homo sapiens, MCF7
  pIC50: 3.51
NCI-H460 cell; Homo sapiens, NCI-H460
  pIC50: 3.54
SF-268 cell; Homo sapiens, SF-268
  pIC50: 3.52
[1]
  pIC50: 5.73

## CC(C)(C)C(=O)OCOP(=O)(OCOC(=O)C(C)(C)C)C(Cc1cccc(-c2cccc(-c3ccccc3)c2)c1)P(=O)(OCOC(=O)C(C)(C)C)OCOC(=O)C(C)(C)C [Compound 647, Tetrakis-pivaloyloxymethyl 2-[3-(3-phenylphenyl)phenyl]ethylidene-1,1-bisphosphonate]
MCF-7 cell
  pIC50: 5.58
NCI-H460 cell
  pIC50: 5.79
SF-268 cell
  pIC50: 5.62

## O=CN(O)CCCP(=O)(O)O [fosmidomycin]
E. coli
  anti-bacterial properties: anti-bacterial properties

## Tetrakis-isopropoxycarboxymethyl 2-(3,4-difluorophenyl)ethylidene-1,1-bisphosphonate [Compound 496]
MCF-7 cell
  pIC50: 4.82
NCI-H460 cell
  pIC50: 4.70
SF-268 cell
  pIC50: 4.55

## Tetrakis-isopropoxycarboxymethyl 2-(3-cyanophenyl)ethylidene-1,1-bisphosphonate [Compound 498]
MCF-7 cell
  pIC50: 4.23
NCI-H460 cell
  pIC50: 4.65
SF-268 cell
  pIC50: 5.11

Reference: patent US7687482B2, “Bisphosphonate compounds and methods” (The Board of Trustees of the University of Illinois, priority 2006, dated 2010)
